{
  "source": "patent US11719711B2",
  "about": "“Compositions and methods for detecting and/or treating inflammation” (THE GENERAL HOSPITAL CORPORATION, priority 2013, dated 2023)",
  "key": {"P2Y14 [1]": {"target": "T1, P2Y14 (Mus musculus, UniProt Q9ESG6)", "T1 sequence (Q9ESG6 1-338)": "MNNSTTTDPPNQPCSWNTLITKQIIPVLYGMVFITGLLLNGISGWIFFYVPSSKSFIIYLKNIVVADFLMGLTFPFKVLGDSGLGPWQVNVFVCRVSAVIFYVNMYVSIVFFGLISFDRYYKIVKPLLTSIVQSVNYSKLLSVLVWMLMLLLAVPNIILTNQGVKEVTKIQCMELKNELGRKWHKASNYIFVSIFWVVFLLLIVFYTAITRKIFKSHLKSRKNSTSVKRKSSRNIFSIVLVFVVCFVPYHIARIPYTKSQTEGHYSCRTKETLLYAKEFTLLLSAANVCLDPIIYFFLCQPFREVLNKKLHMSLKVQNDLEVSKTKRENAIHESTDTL", "conditions": "EGFP(+) cell membranes, saturating concentration 10^−5 M unlabeled ligand", "procedure": "Mice were anesthetized using pentobarbital sodium (50 mg/kg body, ip, Nembutal, Abbott Laboratories, Abbott Park, Ill.). The blood was flushed out of the organs by perfusing the animals with a phosphate-buffered saline (PBS) through the cardiac left ventricle at a constant flow rate of 17 ml/min. Kidneys were excised and sliced, and some kidneys were microdissected to separate the cortex from the medulla. Tissues were then minced immediately with scissors in RPMI 1640 medium (Invitrogen, Grand Island, N.Y.) containing 1.0 mg/ml collagenase type I (Invitrogen), 1.0 mg/ml collagenase type II (Sigma Aldrich) and 2 mg/ml hyaluronidase (Sigma Aldrich), and digested for 45 min at 37° C. A 40-μm-nylon mesh was used to remove undigested material following tissue digestion. Cells were then washed once with RPMI 1640 medium and once with a calcium-free PBS. EGFP-positive (EGFP(+)) and negative (EGFP(−)) cells were isolated immediately by FACS, based on their green fluorescence intensity, as described previously (36). […]\nConfluent MDCK-C11 cells were scrapped in ice-cold PBS, pelleted by centrifugation (500 g, 10 min) and then resuspended in 1 ml ice-cold Tris-acetate 0.2 M buffer (pH 7.5) containing protease inhibitors (Complete Mini, Roche, Indianapolis, Ind.) using a 25G needle. […] Protein concentration was determined using a nanodrop 2000 (Thermo scientific). […]"}, "P2Y14 [2]": {"target": "T2, P2Y14 (Canis lupus familiaris, UniProt A0A8I3S656)", "T2 sequence (A0A8I3S656 1-340)": "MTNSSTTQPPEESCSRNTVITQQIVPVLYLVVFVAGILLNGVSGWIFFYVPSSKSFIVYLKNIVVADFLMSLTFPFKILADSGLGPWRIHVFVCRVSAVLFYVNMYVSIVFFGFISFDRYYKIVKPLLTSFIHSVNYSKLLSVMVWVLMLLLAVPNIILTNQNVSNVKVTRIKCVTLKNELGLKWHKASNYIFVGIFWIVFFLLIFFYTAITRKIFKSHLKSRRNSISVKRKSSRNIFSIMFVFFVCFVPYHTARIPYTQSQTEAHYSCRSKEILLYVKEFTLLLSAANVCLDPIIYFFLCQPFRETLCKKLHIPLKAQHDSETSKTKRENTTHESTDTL", "test": "[3H]UDP-glucose dose-displacement binding to MDCK-C11 membranes", "parameters": "endogenous in cells; host or cells: MDCK-C11 cells (Madin-Darby Canine Kidney subclone C11), not transfected; species or system Canine", "conditions": "MDCK-C11 membranes 15 μg, [3H]UDP-glucose 3 nM, 3 hours 22° C., increasing concentrations (ATP up to 10 μM)", "procedure": "Incubation was terminated by the addition of ice-cold 50 mM Tris/HCl pH 7.4, 1 mM EDTA, 5 mM MgCl2 and was followed immediately by filtration under vacuum through Gelman A/E glass filters (Pall life science, An Arbor, Mich.) pre-soaked in binding buffer. The filters were rinsed twice before the addition of 5 ml of scintillation fluid (OpticFluor, Groninge, The Netherlands). Receptor-bound radioactivity was measured using liquid scintillation analyzer Tricarb 2200 CA from Parckard. All assays were performed in triplicate. […] Incubations were stopped by the addition of ice-cold buffer and receptor-bound radioactivity was determined as described above. The equilibrium dissociation constant (Kd) and the capacity of binding in dose-displacement studies were calculated using a scatchard plot and are expressed as the mean±SD. Statistical analysis were performed using the unpaired Student t-test."}, "[3]": {"tested_on": "pro-inflammatory chemokine mRNA expression in MDCK-C11 cells", "test": "Quantitative PCR of pro-inflammatory mediators in MDCK-C11 cells", "type": "cell-based, Canine", "procedure": "Total RNA was isolated from cells using RNeasy micro kit (Qiagen, Valencia, Calif.) and from tissues using RNeasy Mini kit, as described previously (36). DNase I digestion was performed using RNase-Free DNase Set (Qiagen) according to the manufacturer's instructions. All reverse transcription (RT) and PCR reagents were from Applied Biosystems (Foster City, Calif.). Reverse-transcription was performed for 1 h at 42° C. in a final volume of 50 μl with 1× buffer II, 5 mM MgCl2, 1.0 mM each dNTP, 1 U/μl RNase inhibitor, 2.5 μM random hexamers, and 2.5 U/μl MuLV reverse transcriptase. PCR was performed on RT products. For end point PCRs, reaction mixtures consisted of a 20 μl final volume containing 2 μl template, 1.25 units AmpliTaq Gold DNA polymerase, lx buffer II, 1.5 mM MgCl2, 1.0 mM each dNTP, and 0.5 μM forward and reverse oligonucleotide primers. The following parameters were used for PCR: 8 min at 95° C. to activate the polymerase, 35 cycles of melting for 30 s at 95° C., annealing for 30 s at 60° C., extension for 30 s at 72° C., and a final extension for 10 min at 72° C. The amplification products were visualized by electrophoresis on a 1-2% agarose gel containing GelStar stain (Lonza, Rockland, Me.).\nReal Time PCR was performed with a 7300 Real Time PCR system (Applied Biosystems). Amplification products were detected using the Power SYBR Green PCR master mix (Applied Biosystems), according to the manufacturer's instructions. Standard-curve relative quantifications were performed and relative values of each sample were normalized to GAPDH values. Samples were analyzed in triplicates for each experiment.\nMDCK-C11 cells were cultured at 37° C. in a 5% CO2-95% O2 mix in DMEM (Invitrogen) supplemented with 2 mM glutamine, 10% fetal bovine serum (Invitrogen), penicillin (100 U/ml), and streptomycin (100 μg/ml) (Invitrogen). Prior to any treatment, cells were serum starved for 24 hours. For cell surface biotinylation assays, cells were either grown to confluence on plastic dishes or on filters. Biotinylation was performed as described previously (75). Briefly cells were incubated with 1 mg/ml of biotin (Thermo Scientific, Pittsburgh, Pa.) in PBS pH 8 on ice for 1 h. The excess biotin was quenched with 100 mM glycine and cells were either further processed for immunostaining or lysed in lysis buffer [150 mM NaCl, 5 mM EDTA, 50 mM Tris/HEPES, pH 7.5; 1% (vol/vol) Triton X-100] containing protease and phosphatase inhibitors (Complete Mini EDTA free, PhosSTOP, Roche Diagnostics, Laval, Canada), for 20 min at 4° C. Total protein expression was determined in 2-5 μg of proteins from the total cell extracts. 50-100 μg of cell lysate proteins were incubated with neutravidin beads (Thermo Scientific) overnight at 4° C. […]"}, "P2Y14 [4]": {"target": "T2, P2Y14", "conditions": "MDCK-C11 cells, PPTN 10 μM pre-treatment 30 minutes, 100 μM UDP-glucose"}, "P2Y14 [5]": {"target": "T1, P2Y14", "test": "ERK1/2 phosphorylation in FACS isolated EGFP(+) intercalated cells (immunoblot)", "type": "cell-based", "parameters": "using total membranes separated from FACS isolated EGFP(+) cells and EGFP(−) cells; endogenous in cells; host or cells: EGFP(+) intercalated cells freshly isolated by FACS from kidneys of B1-EGFP transgenic mice", "conditions": "with PPTN", "procedure": "Mice were anesthetized using pentobarbital sodium (50 mg/kg body, ip, Nembutal, Abbott Laboratories, Abbott Park, Ill.). The blood was flushed out of the organs by perfusing the animals with a phosphate-buffered saline (PBS) through the cardiac left ventricle at a constant flow rate of 17 ml/min. Kidneys were excised and sliced, and some kidneys were microdissected to separate the cortex from the medulla. Tissues were then minced immediately with scissors in RPMI 1640 medium (Invitrogen, Grand Island, N.Y.) containing 1.0 mg/ml collagenase type I (Invitrogen), 1.0 mg/ml collagenase type II (Sigma Aldrich) and 2 mg/ml hyaluronidase (Sigma Aldrich), and digested for 45 min at 37° C. A 40-μm-nylon mesh was used to remove undigested material following tissue digestion. Cells were then washed once with RPMI 1640 medium and once with a calcium-free PBS. EGFP-positive (EGFP(+)) and negative (EGFP(−)) cells were isolated immediately by FACS, based on their green fluorescence intensity, as described previously (36). Cell isolation was performed at the MGH flow cytometry core facility using a modified FACS Vantage cell sorter (BD Biosciences, San Jose, Calif.). FACS isolated samples were collected in PBS and used without delay for subsequent treatment and/or cell fractionation, protein and RNA isolation, or imaging. […]"}, "[6]": {"conditions": "PD98059 50 μM pretreatment 30 minutes"}},
  "data": [
    {"smiles": "Nc1ncnc2c1ncn2[C@@H]1O[C@H](COP(=O)(O)OP(=O)(O)OP(=O)(O)O)[C@@H](O)[C@H]1O", "note": "[ATP]", "values": [
      {"measurement": "displacement of [3H]UDP-glucose binding", "setting": "P2Y14 [1]", "result": "not with ATP"},
      {"measurement": "inhibition of [3H]UDP-glucose binding by unlabeled ligand", "setting": "P2Y14 [2]", "result": "no significant inhibitory effect"}
    ]},
    {"smiles": "COc1cccc(-c2cc(=O)c3ccccc3o2)c1N", "note": "[PD98059]", "values": [
      {"measurement": "UDP-glucose induced up regulation of CCL-2 mRNA", "setting": "[3]; [6]", "result": "abolished"},
      {"measurement": "UDP-glucose induced up regulation of IL-8 mRNA", "setting": "[3]; [6]", "result": "abolished"}
    ]},
    {"smiles": "O=C(O)c1cc(-c2ccc(C3CCNCC3)cc2)c2ccc(-c3ccc(C(F)(F)F)cc3)cc2c1", "note": "[PPTN, 4-[4-(piperidin-4-yl)phenyl]-7-[4-(trifluoromethyl)phenyl]-2-naphthoic acid]", "values": [
      {"measurement": "increase in CCl2 mRNA expression induced by UDP-glucose", "setting": "[3]; PPTN pretreatment 30 minutes", "result": "abolished"},
      {"measurement": "increase in IL8 mRNA expression induced by UDP-glucose", "setting": "[3]; PPTN pretreatment 30 minutes", "result": "abolished"},
      {"measurement": "UDP-glucose induced increase in ERK1/2 phosphorylation", "setting": "P2Y14 [4]", "result": "abolished"},
      {"measurement": "UDP-glucose dependent ERK phosphorylation in ICs isolated by FACS (FIG. 14)", "setting": "P2Y14 [5]", "result": "inhibits"}
    ]}
  ]
}
